Each block holds one molecule with its values, some of them ahead of it.
Key:
[1] = molecular target: T1, JtRdhA (reductive dehalogenase) (Jhaorihella thermophila, UniProt A0A1H5TYU2); test: substrate turnover by purified enzyme, NADPH consumption and HPLC; assay type: biochemical
T1 construct: gene SAMN05421751_103106; full-length, N-terminal His-MBP-TEV fusion (JtRdhA^MBP), WP_104007082
T1 sequence (A0A1H5TYU2 1-1069): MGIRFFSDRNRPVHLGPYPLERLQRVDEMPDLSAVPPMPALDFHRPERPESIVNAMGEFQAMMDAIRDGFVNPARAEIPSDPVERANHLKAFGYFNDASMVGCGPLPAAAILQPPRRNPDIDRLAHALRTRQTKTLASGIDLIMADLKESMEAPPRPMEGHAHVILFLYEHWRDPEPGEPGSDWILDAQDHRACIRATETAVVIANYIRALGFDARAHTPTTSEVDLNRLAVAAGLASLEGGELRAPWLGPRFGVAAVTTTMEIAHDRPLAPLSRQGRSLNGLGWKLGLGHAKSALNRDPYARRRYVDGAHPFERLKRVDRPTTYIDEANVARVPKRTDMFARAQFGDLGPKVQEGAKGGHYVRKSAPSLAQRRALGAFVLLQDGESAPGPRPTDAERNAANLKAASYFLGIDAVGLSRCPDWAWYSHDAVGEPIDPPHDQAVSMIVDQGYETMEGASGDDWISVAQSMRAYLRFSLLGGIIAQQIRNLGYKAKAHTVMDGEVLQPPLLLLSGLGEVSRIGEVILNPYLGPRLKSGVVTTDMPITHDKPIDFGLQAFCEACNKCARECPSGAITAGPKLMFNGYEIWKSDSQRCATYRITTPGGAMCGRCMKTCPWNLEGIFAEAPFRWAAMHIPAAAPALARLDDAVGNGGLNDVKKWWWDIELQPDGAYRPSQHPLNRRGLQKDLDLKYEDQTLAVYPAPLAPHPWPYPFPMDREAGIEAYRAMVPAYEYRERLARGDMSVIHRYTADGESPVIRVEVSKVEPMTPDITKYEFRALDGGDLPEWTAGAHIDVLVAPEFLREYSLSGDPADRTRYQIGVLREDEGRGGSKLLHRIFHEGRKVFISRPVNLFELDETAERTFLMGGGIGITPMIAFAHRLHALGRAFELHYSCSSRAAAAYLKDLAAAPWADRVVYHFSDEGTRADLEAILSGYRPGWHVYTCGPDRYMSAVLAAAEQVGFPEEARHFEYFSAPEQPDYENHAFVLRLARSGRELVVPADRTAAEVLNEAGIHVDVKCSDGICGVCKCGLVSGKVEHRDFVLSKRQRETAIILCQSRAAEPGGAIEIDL

[2] = molecular target: T1, JtRdhA (reductive dehalogenase); test: NADPH consumption assay, Dixon plot vs 35-DB-4-OH; assay type: biochemical
[3] = molecular target: T1, JtRdhA (reductive dehalogenase); test: biphasic turnover assay, LC-MS of debrominated products; assay type: biochemical
[4] = substrate: O=C(O)c1ccc(O)c(Br)c1; test: steady-state kinetics by NADPH consumption (KM), purified enzyme; assay type: biochemical, Jhaorihella thermophila; settings: cobalamin, 2x [4Fe-4S], [2Fe-2S], FMN
[5] = substrate: O=C(O)c1cc(Br)c(O)c(Br)c1; test: EPR of cob(II)alamin with substrate (Br superhyperfine coupling); KM from steady-state NADPH oxidation; assay type: biochemical, Jhaorihella thermophila; settings: cobalamin, 2x [4Fe-4S], [2Fe-2S], FMN active site; displaces chloride, substrate bromine atoms less than […] Å from the Co2+ ion

Molecule: Oc1ccccc1I [2-Iodophenol, 2-iodophenol]
NADPH consumption μM min^-1 [1]: 106 ± 3 µM/min

NADPH consumption μM min^-1 [1]: 124 ± 8 µM/min
Molecule: O=C(O)c1cc(I)c(O)c(I)c1 [3,5 Diiodo-4-hydroxybenzoic acid]

NADPH consumption μM min^-1 [1]: 147 ± 3 µM/min
Molecule: O=C(O)Cc1ccc(O)c(Br)c1 [3-bromo-4-hydroxyphenylacetic acid]

Molecule: O=C(O)c1cc(Cl)c(O)c(Cl)c1 [35-DC-4-OH, 3,5-dichloro-4-hydroxybenzoic acid]
Ki [2]: 13.7 ± 3.6 µM

Molecule: CC(C)(c1cc(Br)c(O)c(Br)c1)c1cc(Br)c(O)c(Br)c1 [compound 1, tetrabromobisphenol A]
biphasic turnover assay, LC-MS of debrominated products [3]: one of the most commonly used flame retardants TBBPA was determined to be a substrate for JtRdhA^MBP

B1: JtRdhA (reductive dehalogenase) (Jhaorihella thermophila) (protein)
chain: T1 sequence (A0A1H5TYU2 1-1069)
notes: full-length, N-terminal His-MBP-TEV fusion (JtRdhA^MBP), WP_104007082
Km [4]: 21 ± 0.2 µM
Km [5]: 19 ± 0.7 µM
